In data set [1] the test system is kidney cancer cell (Caki-1). Description: Cell viability (calcein-AM / ethidium homodimer-1), Caki-1. Conditions: Homo sapiens, CAKI-1, 24 h. The procedure: (§1) Strains of cervical cancer cell (HeLa), kidney cancer cell (Caki-1), brain tumor cell (T98G), breast cancer cell (MDA-MB 435S), and colon cancer cell (DLD-1), multiple myeloma cell (RPMI-8226), and a strain of normal breast epithelial cell (MCF-10A) were available from ATCC (American Type Culture Collection, USA). The strains of cervical cancer cell (HeLa), kidney cancer cell (Caki-1), brain tumor cell (T98G), breast cancer cell (MDA-MB 435S), and colon cancer cell (DLD-1) were cultured by using a DMEM medium including 10% fetal bovine serum (FBS), 2 mM of L-glutamin, 100 i.u./ml of penicillin, and […] of streptomycin for the culture and maintenance; multiple myeloma cell (RPMI-8226) was cultured by using a RPMI1640 medium including 10% FBS, 100 i.u./ml of penicillin, and […] of streptomycin; and the strain of normal breast epithelial cell (MCF-10A) was cultured by using a mammary epithelial growth medium (MEGM) including a bovine pituitary extract, insulin, human epidermal growth factor, hydrocortisone, and antibiotics, and the culture conditions included 37° C. and 5% CO2 in an incubator.
(§2) Then, the cells were stained by using 2 μM calcein-AM and 4 μM ethidium homodimer-1, and cell viability was measured by using a fluorescent microscope (Axiovert 200M, available from Carl Zeiss, Jena, Germany).

The nature of data set [2]: Cell viability (calcein-AM / ethidium homodimer-1), MCF-10A. Conditions: human, Cell viability, MCF-10A, 24 h. The protocol: as §1, §2
Data set [3] deals with normal breast epithelial cell (MCF-10A). The data set is described as above. Particulars: MCF-10A, 24 h. The protocol:
as §1, §2

Data set [4] has as its system cervical cancer cell (HeLa). Description: Cell viability (calcein-AM / ethidium homodimer-1), HeLa. Particulars: 24 h. The protocol: as §1, §2
In another data set the test system is brain tumor cell (T98G). Description: Cell viability (calcein-AM / ethidium homodimer-1), T98G. Particulars: 24 h. The procedure:
as §1, §2

Data set [5] deals with multiple myeloma cell (RPMI-8226). Description: Cell viability (calcein-AM / ethidium homodimer-1), RPMI-8226. Particulars: Homo sapiens, RPMI-8226, 24 h, read-out: Cell viability. The protocol: as §1, §2
For data set [6], the system named is colon cancer cell (DLD-1). Description: Cell viability (calcein-AM / ethidium homodimer-1), DLD-1. Particulars: Homo sapiens, DLD-1, 24 h, read-out: Cell viability. The protocol: as §1, §2
In data set [7] the test system is breast cancer cell (MDA-MB 435S). Description: Cell viability (calcein-AM / ethidium homodimer-1), MDA-MB 435S. Particulars: Homo sapiens, MDA-MB-435S, 24 h. The protocol: as §1, §2
[8] abbreviates: Homo sapiens, read-out: cell viability decreased.

Structures are written as SMILES. Where “and” joins values, the source holds several entries; their conditions need not be identical. Equal entries are not always repeated.

As usually defined, the viability is a per cent measure of how many cells are alive, often set against a control.

With `CN(C)C(=O)C(CCN1CCC(O)(c2ccc(Cl)cc2)CC1)(c1ccccc1)c1ccccc1` [Loperamide], the viability at 20 µM in data set [1] (read-out: Cell viability) is 100%; in data set [4] (Homo sapiens, read-out: Cell viability, HeLa, loperamide 20 μM alone), 99.7%; in the data set on brain tumor cell (T98G) (Homo sapiens, read-out: Cell viability, T98G, loperamide 20 μM alone), 99%; in data set [6], 100%; in data set [7] (read-out: Cell viability), 78%. The viability at 40 µM is 65.1% in data set [1] (read-out: Cell viability) and 75.1% in data set [4] (Homo sapiens, read-out: Cell viability, HeLa, loperamide 40 μM alone). In addition, the cytotoxicity at 40 µM is roughly 35% in data set [1] (read-out: cell viability decreased) and roughly 25% in data set [4] (setting [8]). In addition, in data set [2] (loperamide 10 μM alone), the viability at 24 h, 10 μM was 97.7%. Besides, in data set [2] (loperamide 20 μM alone), the viability at 24 h, 20 μM is 94.6%. Besides, the Cell viability in data set [3] (loperamide 10 μM alone) is 95.21 and 100.29 and 95.11; in data set [3] (loperamide 20 μM alone) it was 99.25 and 94.65 and 100.37; in data set [4] (loperamide 20 μM alone) it was 99.81; in the data set on brain tumor cell (T98G) (loperamide 10 μM alone) it was 94.43. Also, the viability at 10 µM with brain tumor cell (T98G) (Homo sapiens, read-out: Cell viability, T98G, loperamide 10 μM alone) is 100%; in data set [5], 89.4%; in data set [6], 100%; in data set [7] (read-out: Cell viability), 100%. Further, the cytotoxicity at 20 µM in the data set on brain tumor cell (T98G) (setting [8]) was roughly 10%; in data set [7] (read-out: cell viability decreased, MDA-MB 435S, loperamide alone 20 μM), roughly 22%. The cancer cell toxicity entry with brain tumor cell (T98G) (loperamide alone up to 20 μM) is recorded as “did not exhibit significant cancer cell toxicity”. Moreover, in data set [5], the viability at 5 µM is 98.6%.

(Values after patent publication US9931331B2 (priority 2013, dated 2018).)
